Where a name gives a salt, the structure may show the parent alone.
Experiments:
[1] = tested on: HUVEC (normal human umbilical vein endothelial cells); assay: VEGF-induced HUVEC proliferation: cell proliferation inhibitory action test; assay type: cell-based; settings: 72 h, 5 μL of 20 μg/mL test compound solution per well, WST-8 absorbance at 450 nm three days after VEGF addition, read-out: Cell proliferation inhibition rate (%);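 further: each well holds 100 µL cell suspension before compound addition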
Protocol: A cell proliferation inhibitory action test of the compounds of the present invention was performed using a VEGF-induced HUVEC proliferation evaluation system (HUVEC stands for normal human umbilical vein endothelial cells), which is one of the widely-used methods of evaluating in vitro angiogenesis inhibitory effects of drugs. As one of the widely-used methods of evaluating angiogenesis inhibitory effects of drugs, a cell proliferation inhibitory action test using a VEGF-induced HUVEC proliferation reaction evaluation system has been reported in Cancer Res., 59, 99-106 (1999). According to the method described in the above-mentioned document, a cell proliferation inhibitory action test of the compounds of the present invention was performed, the cell proliferation inhibition rate was calculated, and the angiogenesis inhibitory effect of each of the compounds of the present invention was evaluated using the obtained rate as an index. Each test compound was dissolved in dimethyl sulfoxide (hereinafter abbreviated as DMSO), and the obtained solution was diluted with a commercially available phosphoric acid buffer solution (hereinafter abbreviated as PBS), whereby a 20 μg/mL test compound solution was prepared. HUVEC was suspended in a 0.5% fetal bovine serum (hereinafter abbreviated as FBS)-containing F12K medium, whereby a 2×10^4 cells/mL HUVEC suspension was prepared. VEGF was dissolved in 0.1% bovine serum albumin-containing PBS, and the obtained solution was diluted with the 0.5% FBS-containing F12K medium, whereby a 400 ng/mL VEGF solution was prepared. • 1) The HUVEC suspension was inoculated in an amount of 100 μL into each well of a 96-well plate coated with type I collagen (2×10^3 cells per well). • 2) One day after the inoculation, the test compound solution was added in an amount of 5 μL per well. • 3) One hour after the addition of the test compound solution, the VEGF solution was added in an amount of 5 μL per well. • 4) Three days after the addition of the VEGF solution, WST-8 assay kit (Dojin Chemical Co., Ltd.) was added in an amount of 10 μL per well. • 5) After 3 hours, the above-mentioned plate was attached to an absorptiometer (Multilabel Counter ARVO), and an absorbance at 450 nm of each well suspension (hereinafter referred to as test compound suspension) was measured. • 6) A test was carried out in the same manner as in the above 1) to 5) except that 1.0% DMSO was used instead of the test compound solution. The result was used as a control. Incubation was carried out under conditions of 37° C., 5% carbon dioxide and […] in an incubator throughout the above-mentioned test steps. The cell proliferation inhibition rate (%), which was used as an index of an angiogenesis inhibitory effect, was calculated according to the following calculation equation. Cell proliferation inhibition rate (%)=100−{(Absorbance of test compound suspension−A)/(absorbance of control−A)}×100 (Calculation Equation) A: Absorbance of only cell suspension (cell+medium) (Test Results and Discussion)

[2] = tested on: B16 cells; assay: Tumor growth inhibitory action test using cancer models in mice (B16 cells); assay type: in vivo; settings: C57BL/6N mouse, B16 cells intradermal; 100 mg/kg/day oral once a day, day 0 to day 10; average of 9 mice per group; read-out: Tumor tissue weight inhibition rate (%)
Protocol: A tumor growth inhibitory action test of the compounds of the present invention was performed using a tumor growth model in mice, which is one of the widely-used methods of evaluating in vivo anticancer effects of drugs.
As one of the widely-used methods of evaluating anticancer effects of drugs, a tumor growth inhibitory action test using cancer models in mice has been reported in Cancer Res., 59, 5209-5218 (1999). According to the method described in the above-mentioned document, a tumor growth inhibitory action test of the compounds of the present invention was performed, the tumor tissue weight inhibition rate was calculated, and the anticancer effect of each of the compounds of the present invention was evaluated using the obtained rate as an index.
A 1% aqueous methyl cellulose solution was added to each test compound to suspend it with a sonicator, whereby a 10 mg/mL test compound suspension was prepared.
Physiological saline was added to B16 cells, whereby a 3.3×10^7 cells/mL B16 cell suspension was prepared.
• 1) The back of each mouse (female, 6 weeks of age, C57BL/6N mouse) was depilated using a depilatory under Nembutal anesthesia. • 2) Several days after the depilation, the B16 cell suspension (300 μL) was injected intradermally into the back of the mouse under Nembutal anesthesia. • 3) From the B16 cell injection day (i.e. on day 0) to day 10, the test compound suspension (100 mg/kg/day) was orally administered once a day consecutively. • 4) Ten days after the injection of the cells, the mouse was euthanized with CO2 gas. • 5) A tumor tissue was enucleated from the mouse, and the weight of the tumor tissue was measured with an electronic balance. • 6) A test was performed in the same manner as in 1) to 5) except that the 1% aqueous methyl cellulose solution was used instead of the test compound suspension, and the result was used as a control. (Calculation of Tumor Tissue Weight Inhibition Rate)
A tumor tissue weight inhibition rate (the average of 9 mice per group), which was used as an index of anticancer effect, was calculated according to the following calculation equation. Tumor tissue weight inhibition rate (%)=100−(Mx/Mo)×100 (Calculation Equation) Mo: Tumor tissue weight of control group Mx: Tumor tissue weight of test compound solution administration group (Test Results and Discussion)

Compound | inhibition at 20 µg/mL (stock) [1] [%] | inhibition in vivo at 100 mg/kg/day [2] [%]
CC(=O)Nc1cc(CSc2ccsc2C(=O)Nc2cc(C)cc(C)c2)ccn1 [Compound 4-56, 3-(2-Acetylaminopyridin-4-ylmethylthio)-N-(3,5-dimethylphenyl)thiophene-2-carboxamide] | 99 | 42
Cc1cc(C)cc(NC(=O)c2cccnc2SCc2ccnc(N3CCOCC3)c2)c1 [Compound 1-4, N-(3,5-Dimethylphenyl)-2-(2-morpholinopyridin-4-ylmethylthio)pyridine-3-carboxamide] | 100 | 68
CCC(=O)Nc1cc(CSc2ncccc2C(=O)Nc2cc(C)cc(C)c2)ccn1 [Compound 4-2, N-(3,5-Dimethylphenyl)-2-(2-propionylaminopyridin-4-ylmethylthio)pyridine-3-carboxamide] | 100 | 51
CC(=O)Nc1cc(CSc2ncccc2C(=O)Nc2ccc(OC(F)(F)F)c(Cl)c2)ccn1 [Compound 4-14, 2-(2-Acetylaminopyridin-4-ylmethylthio)-N-(3-chloro-4-trifluoromethoxyphenyl)pyridine-3-carboxamide] |  | 44
Cc1cc(C)cc(NC(=O)c2ccccc2SCc2ccnc(N)c2)c1 [Compound 3-20, 2-(2-Aminopyridin-4-ylmethylthio)-N-(3,5-dimethylphenyl)benzamide monohydrochloride] | 100 | 42
CC(=O)Nc1cc(CSc2ccccc2C(=O)Nc2cc(C)cc(C)c2)ccn1 [Compound 4-43, 2-(2-Acetylaminopyridin-4-ylmethylthio)-N-(3,5-dimethylphenyl)benzamide] |  | 47
Cc1cc(C)cc(NC(=O)c2cccnc2SCc2ccnc(NC(=O)Nc3ccc(Cl)cc3)c2)c1 [Compound 5-3, 2-[2-(N′-4-Chlorophenylureido)pyridin-4-ylmethylthio]-N-(3,5-dimethylphenyl)pyridine-3-carboxamide] | 100 | 
CC(=O)N1CCN(c2cc(CSc3ncccc3C(=O)Nc3ccc4c(c3)CCC4)ccn2)CC1 [Compound 1-11, 2-[2-(4-Acetylpiperazin-1-yl)pyridin-4-ylmethylthio]-N-(indan-5-yl)-pyridine-3-carboxamide] | 96 | 
Cc1cc(C)cc(NC(=O)c2cccnc2SCc2ccnc(N3CCCCC3)c2)c1 [Compound 1-5, N-(3,5-Dimethylphenyl)-2-[2-(piperidin-1-yl)pyridin-4-ylmethylthio]pyridine-3-carboxamide] | 90 | 
NCC(=O)Nc1cc(CSc2ncccc2C(=O)Nc2ccc(OC(F)F)cc2)ccn1 [Compound 18-1, 2-(2-Aminoacetylaminopyridin-4-ylmethylthio)-N-(4-difluoromethoxyphenyl)pyridine-3-carboxamide] | 88 | 
Cc1cc(C)cc(NC(=O)c2cccnc2SCc2ccnc(N(C)C(=O)OC(C)(C)C)c2)c1 [Compound 2-7, 2-[2-(N-tert-Butoxycarbonyl-N-methylamino)pyridin-4-ylmethylthio]-N-(3,5-dimethylphenyl)pyridine-3-carboxamide] | 52 | 
Nc1cc(CSc2ncccc2C(=O)Nc2ccc3c(c2)CCC3)ccn1 [Compound 3-3, 2-(2-Aminopyridin-4-ylmethylthio)-N-(indan-5-yl)pyridine-3-carboxamide monohydrochloride] | 100 | 
Cc1cc(C)cc(NC(=O)c2cccnc2SCc2ccnc(NC(=O)C(F)(F)F)c2)c1 [Compound 4-3, N-(3,5-Dimethylphenyl)-2-(2-trifluoroacetylaminopyridin-4-ylmethylthio)pyridine-3-carboxamide] | 100 | 
CC(=O)Nc1cc(CSc2ccccc2C(=O)Nc2ccc(Cl)cc2)ccn1 [Compound 4-42, 2-(2-Acetylaminopyridin-4-ylmethylthio)-N-(4-chlorophenyl)benzamide] | 100 | 
Cc1cc(C)cc(NC(=O)c2cccnc2SCc2ccnc(NC(=O)OC(C)(C)C)c2)c1 [Compound 2-1, 2-(2-tert-Butoxycarbonylaminopyridin-4-ylmethylthio)-N-(3,5-dimethylphenyl)pyridine-3-carboxamide] | 100 | 
CNC(=O)Nc1cc(CSc2ncccc2C(=O)Nc2ccc(Cl)cc2)ccn1 [Compound 9-3, N-(4-Chlorophenyl)-2-[2-(N′-methylureido)pyridin-4-ylmethylthio]pyridine-3-carboxamide] | 100 | 
CNC(=O)Nc1cc(CSc2ncccc2C(=O)Nc2ccc(OC(F)F)cc2)ccn1 [Compound 9-4, N-(4-Difluoromethoxyphenyl)-2-[2-(N′-methylureido)pyridin-4-ylmethylthio]pyridine-3-carboxamide] | 100 | 
CC(=O)Nc1cc(CSc2ncccc2C(=O)Nc2ccc3cn[nH]c3c2)ccn1 [Compound 4-22, 2-(2-Acetylaminopyridin-4-ylmethylthio)-N-(1H-indazol-6-yl)pyridine-3-carboxamide] | 97 | 
CN(C)CCN(C)CC(=O)NC(Sc1ncccc1C(=O)Nc1ccc(OC(F)F)cc1)c1ccncc1 (stereo not drawn) [Compound 17-50, N-(4-Difluoromethoxyphenyl)-2-[2-(N-(2-dimethylaminoethyl)-N-methylamino)acetylaminopyridin-4-ylmethylthio]pyridine-3-carboxamide] | 100 | 
CC(C)c1cccc(NC(=O)c2cccnc2SCc2ccnc(N)c2)c1 [Compound 3-2, 2-(2-Aminopyridin-4-ylmethylthio)-N-(3-isopropylphenyl)pyridine-3-carboxamide monohydrochloride] | 97 | 61
Cc1cc(C)cc(NC(=O)c2cccnc2SCc2ccnc(Nc3ncc(C#N)s3)c2)c1 [Compound 2-24, 2-[2-(5-Cyanothiazol-2-ylamino)pyridin-4-ylmethylthio]-N-(3,5-dimethylphenyl)pyridine-3-carboxamide] | 88 | 
CC(=O)Nc1cc(CSc2ncccc2C(=O)Nc2cccc(Cl)c2)ccn1 [Compound 4-16, 2-(2-Acetylaminopyridin-4-ylmethylthio)-N-(3-chlorophenyl)pyridine-3-carboxamide] |  | 74

Source: patent US7544703B2, “Cyclic compound having 4-pyridylalkylthio group having substituted or unsubstituted amino group introduced therein” (Santen Pharmaceutical Co., Ltd., priority 2004, dated 2009)
